Earlier results, collected in patent US20050129762A1, “Extended release pharmaceutical dosage form” (Wyeth, priority 2003, published 2005).
Counter-ions that a name gives are not always drawn.

Conditions: plural daily dosing regimen, immediate release tablets

Vomiting, share of patients: about seventeen
nausea, share of patients under treatment: about forty five
Compound: COc1ccc(C(CN(C)C)C2(O)CCCCC2)cc1 (centres unmarked) [venlafaxine hydrochloride, 1-[2-(dimethylamino)-1-(4-methoxyphenyl)ethyl]-cyclohexanol]
